In ChEMBL document CHEMBL4831528, “Discovery of Novel Pterostilbene-Based Derivatives as Potent and Orally Active NLRP3 Inflammasome Inhibitors with Inflammatory Activity for Colitis” (J Med Chem, 2021):
The source made the active and inactive calls. The calls are words filed in the database; no cut-off is given here.

Biological target: NACHT, LRR and PYD domains-containing protein 3 (Mus musculus) (UniProt Q8R4B8)
Test: (§1) Inhibition of NLRP3 inflammasome activation in LPS-stimulated mouse J774A.1 cells assessed as inhibition of cell pyrolysis at 10 uM incubated for 1 hr followed by ATP addition and measured after 30 mins by Hoechst 33342/propidium iodide staining based high content screening method relative to control
Conditions: J774.A1, time 1.5 hrs

Sequence of NACHT, LRR and PYD domains-containing protein 3 (Mus musculus) (Q8R4B8 whole entry, the tested form may be a part): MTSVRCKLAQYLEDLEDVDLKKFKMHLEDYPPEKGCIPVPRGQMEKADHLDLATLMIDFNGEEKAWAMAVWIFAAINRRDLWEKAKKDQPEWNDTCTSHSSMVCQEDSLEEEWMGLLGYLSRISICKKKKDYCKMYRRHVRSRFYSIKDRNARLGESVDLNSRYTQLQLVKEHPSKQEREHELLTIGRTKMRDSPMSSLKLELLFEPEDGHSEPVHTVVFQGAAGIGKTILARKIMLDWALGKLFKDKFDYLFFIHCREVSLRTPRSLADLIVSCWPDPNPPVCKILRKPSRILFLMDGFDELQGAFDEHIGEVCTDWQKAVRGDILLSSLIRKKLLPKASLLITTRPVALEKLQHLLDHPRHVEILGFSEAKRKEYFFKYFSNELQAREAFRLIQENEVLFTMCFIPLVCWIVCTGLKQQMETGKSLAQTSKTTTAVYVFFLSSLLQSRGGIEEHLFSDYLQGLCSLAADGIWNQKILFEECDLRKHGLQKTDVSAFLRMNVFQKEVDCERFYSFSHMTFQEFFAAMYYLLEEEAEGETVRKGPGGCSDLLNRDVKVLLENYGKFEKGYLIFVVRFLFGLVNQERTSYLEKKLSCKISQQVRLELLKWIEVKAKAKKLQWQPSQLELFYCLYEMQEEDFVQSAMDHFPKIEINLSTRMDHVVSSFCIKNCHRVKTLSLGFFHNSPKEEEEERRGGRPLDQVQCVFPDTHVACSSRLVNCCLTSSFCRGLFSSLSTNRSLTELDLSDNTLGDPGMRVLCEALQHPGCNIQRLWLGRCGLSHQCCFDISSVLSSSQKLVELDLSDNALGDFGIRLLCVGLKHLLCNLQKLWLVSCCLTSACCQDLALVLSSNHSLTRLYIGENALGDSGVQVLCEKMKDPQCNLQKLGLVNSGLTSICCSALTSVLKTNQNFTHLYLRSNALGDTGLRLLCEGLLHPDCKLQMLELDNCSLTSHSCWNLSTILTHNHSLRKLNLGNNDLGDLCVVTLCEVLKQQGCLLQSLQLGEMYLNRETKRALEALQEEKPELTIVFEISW

Row | Compound | inhibition
1 | COc1cc(/C=C/c2ccc(OCc3ccc(C(F)(F)F)cc3)cc2)cc(OC)c1 | 6.32%
2 | CCCC(C)C(=O)Nc1ccc(/C=C/c2cc(OC)cc(OC)c2/C=C/[N+](=O)[O-])cc1 (centres undefined) | 41%
3 | COc1cc(/C=C/c2ccc(OCC(=O)NCc3ccccc3)cc2)c(-c2cnn[nH]2)c(OC)c1 | 19.4%
4 | COc1cc(/C=C/c2ccc(NC(C)=O)cc2)c(/C=C/[N+](=O)[O-])c(OC)c1 | 56.2%
5 | COc1cc(/C=C/c2ccc(NC(=O)C3CCC3)cc2)c(/C=C/[N+](=O)[O-])c(OC)c1 | 55.6%
6 | COCCOc1ccc(/C=C/c2cc(OC)cc(OC)c2/C=C/[N+](=O)[O-])cc1 | 34.6%
7 | COc1ccc(NC(=O)COc2ccc(/C=C/c3cc(OC)cc(OC)c3/C=C/[N+](=O)[O-])cc2)cc1 | 12.9%
8 | COc1cc(/C=C/c2ccc(OCC(=O)NCc3ccncc3)cc2)c(/C=C/[N+](=O)[O-])c(OC)c1 | 45.3%
9 | COc1cc(/C=C/c2ccc(OCc3ccc(C(F)(F)F)cc3)cc2)c(/C=C/[N+](=O)[O-])c(OC)c1 | 17.9%
10 | CCC(=O)Nc1ccc(/C=C/c2cc(OC)cc(OC)c2/C=C/[N+](=O)[O-])cc1 | 50.7%
11 | CCCCNC(=O)COc1ccc(/C=C/c2cc(OC)cc(OC)c2/C=C/[N+](=O)[O-])cc1 | 40.9%
12 | COCCCOc1ccc(/C=C/c2cc(OC)cc(OC)c2/C=C/[N+](=O)[O-])cc1 | 43.2%
13 | C/C=C/C(=O)Nc1ccc(/C=C/c2cc(OC)cc(OC)c2/C=C/[N+](=O)[O-])cc1 | 60.7%
14 | COc1cc(/C=C/c2ccc(NC(=O)C(C)C)cc2)c(/C=C/[N+](=O)[O-])c(OC)c1 | 69%
15 | COCCOc1ccc(/C=C/c2cc(OC)cc(OC)c2-c2cnn[nH]2)cc1 | 11.3%
16 | COc1cc(/C=C/c2ccc(OCC(=O)Nc3ccc(Br)cc3)cc2)c(/C=C/[N+](=O)[O-])c(OC)c1 | 9.56%
17 | O=[N+]([O-])/C=C/c1ccc2c(c1)OCO2 | 70.6%
18 | COc1cc(/C=C/c2ccc(OCC(=O)NCC3CCOCC3)cc2)c(/C=C/[N+](=O)[O-])c(OC)c1 | 15.3%
19 | COCCOc1ccc(/C=C/c2cc(OC)cc(OC)c2)cc1 | 25.7%
20 | COc1cc(/C=C/c2ccc(NC(=O)COC(C)=O)cc2)c(/C=C/[N+](=O)[O-])c(OC)c1 | 61%
21 | C=CCCCOc1ccc(/C=C/c2cc(OC)cc(OC)c2)cc1 | 11.1%
22 | C=CC(=O)Nc1ccc(/C=C/c2cc(OC)cc(OC)c2/C=C/[N+](=O)[O-])cc1 | 71.2%
23 | COCCCOc1ccc(/C=C/c2cc(OC)cc(OC)c2)cc1 | 17.1%

Biological target: NACHT, LRR and PYD domains-containing protein 3 (Mus musculus, UniProt Q8R4B8)
Test: Inhibition of NLRP3 inflammasome activation in LPS-stimulated mouse bone marrow-derived macrophages assessed as reduction in IL-1beta secretion preincubated for 30 mins followed by nigericin addition and measured after 30 mins by ELISA
Type: tissue-based, Macrophage
Conditions: not given

Sequence of NACHT, LRR and PYD domains-containing protein 3 (Q8R4B8 whole entry, the tested form may be a part): as above

Row | Compound | IC50
24 | COc1cc(/C=C/c2ccc(O)cc2)cc(OC)c1 [PTEROSTILBENE] | > 10 µM
25 | COc1cc(/C=C/c2ccc(OCc3ccc(C(F)(F)F)cc3)cc2)cc(OC)c1 | > 10 µM
26 | COc1cc(/C=C/c2ccc(OCC(=O)NCc3ccccc3)cc2)c(-c2cnn[nH]2)c(OC)c1 | > 10 µM
27 | COc1cc(/C=C/c2ccc(NC(=O)C3CCC3)cc2)c(/C=C/[N+](=O)[O-])c(OC)c1 | 1.41 µM
28 | COc1cc(/C=C/c2ccc(OCC(=O)NCc3ccncc3)cc2)c(/C=C/[N+](=O)[O-])c(OC)c1 | 7.68 µM
29 | CCCCNC(=O)COc1ccc(/C=C/c2cc(OC)cc(OC)c2/C=C/[N+](=O)[O-])cc1 | 7.18 µM
30 | O=[N+]([O-])/C=C/c1ccc2c(c1)OCO2 | 2.31 µM

System: L02
Test: Cytotoxicity against human L-02 cells incubated for 24 hrs by MTT assay
Type: cell-based
Conditions: L02, 24 h

Row | Compound | IC50
31 | COc1cc(/C=C/c2ccc(OCc3ccc(C(F)(F)F)cc3)cc2)c(-c2cnn[nH]2)c(OC)c1 | > 100 µM
32 | C=CCCCOc1ccc(/C=C/c2cc(OC)cc(OC)c2-c2cnn[nH]2)cc1 | > 100 µM
33 | COc1cc(/C=C/c2ccc(O)cc2)cc(OC)c1 [PTEROSTILBENE] | > 100 µM
34 | COc1cc(/C=C/c2ccc(OCc3ccc(C(F)(F)F)cc3)cc2)cc(OC)c1 | > 100 µM
35 | CCCC(C)C(=O)Nc1ccc(/C=C/c2cc(OC)cc(OC)c2/C=C/[N+](=O)[O-])cc1 (centres undefined) | > 100 µM
36 | COc1cc(/C=C/c2ccc(OCC(=O)NCc3ccccc3)cc2)c(-c2cnn[nH]2)c(OC)c1 | > 100 µM
37 | COc1cc(/C=C/c2ccc(NC(C)=O)cc2)c(/C=C/[N+](=O)[O-])c(OC)c1 | > 100 µM
38 | COc1cc(/C=C/c2ccc(NC(=O)C3CCC3)cc2)c(/C=C/[N+](=O)[O-])c(OC)c1 | > 100 µM
39 | COCCOc1ccc(/C=C/c2cc(OC)cc(OC)c2/C=C/[N+](=O)[O-])cc1 | > 100 µM
40 | COc1ccc(NC(=O)COc2ccc(/C=C/c3cc(OC)cc(OC)c3/C=C/[N+](=O)[O-])cc2)cc1 | > 100 µM
41 | COc1cc(/C=C/c2ccc(OCC(=O)NCc3ccncc3)cc2)c(/C=C/[N+](=O)[O-])c(OC)c1 | 63 µM
42 | COc1cc(/C=C/c2ccc(OCc3ccc(C(F)(F)F)cc3)cc2)c(/C=C/[N+](=O)[O-])c(OC)c1 | > 100 µM
43 | CCC(=O)Nc1ccc(/C=C/c2cc(OC)cc(OC)c2/C=C/[N+](=O)[O-])cc1 | > 100 µM
44 | CCCCNC(=O)COc1ccc(/C=C/c2cc(OC)cc(OC)c2/C=C/[N+](=O)[O-])cc1 | > 100 µM
45 | COCCCOc1ccc(/C=C/c2cc(OC)cc(OC)c2/C=C/[N+](=O)[O-])cc1 | > 100 µM
46 | C/C=C/C(=O)Nc1ccc(/C=C/c2cc(OC)cc(OC)c2/C=C/[N+](=O)[O-])cc1 | > 100 µM
47 | COc1cc(/C=C/c2ccc(NC(=O)C(C)C)cc2)c(/C=C/[N+](=O)[O-])c(OC)c1 | > 100 µM
48 | COCCOc1ccc(/C=C/c2cc(OC)cc(OC)c2-c2cnn[nH]2)cc1 | 94.5 µM
49 | COc1cc(/C=C/c2ccc(OCC(=O)Nc3ccc(Br)cc3)cc2)c(/C=C/[N+](=O)[O-])c(OC)c1 | > 100 µM
50 | O=[N+]([O-])/C=C/c1ccc2c(c1)OCO2 | 41.1 µM
51 | COc1cc(/C=C/c2ccc(OCC(=O)NCC3CCOCC3)cc2)c(/C=C/[N+](=O)[O-])c(OC)c1 | > 100 µM
52 | COCCOc1ccc(/C=C/c2cc(OC)cc(OC)c2)cc1 | > 100 µM
53 | COc1cc(/C=C/c2ccc(NC(=O)COC(C)=O)cc2)c(/C=C/[N+](=O)[O-])c(OC)c1 | 58.7 µM
54 | C=CCCCOc1ccc(/C=C/c2cc(OC)cc(OC)c2)cc1 | > 100 µM
55 | C=CC(=O)Nc1ccc(/C=C/c2cc(OC)cc(OC)c2/C=C/[N+](=O)[O-])cc1 | > 100 µM
56 | COCCCOc1ccc(/C=C/c2cc(OC)cc(OC)c2)cc1 | > 100 µM

Biological target: NACHT, LRR and PYD domains-containing protein 3 (Mus musculus) (UniProt Q8R4B8)
Test: as §1, with “20” for “10”
Conditions: J774.A1, time 1.5 hrs

Row | Compound | inhibition
57 | COc1cc(/C=C/c2ccc(OCc3ccc(C(F)(F)F)cc3)cc2)c(-c2cnn[nH]2)c(OC)c1 | 3.25%
58 | COc1cc(/C=C/c2ccc(O)cc2)cc(OC)c1 [PTEROSTILBENE] | 21.2%
59 | COc1cc(/C=C/c2ccc(OCc3ccc(C(F)(F)F)cc3)cc2)cc(OC)c1 | 8.51%
60 | COc1cc(/C=C/c2ccc(OCC(=O)NCc3ccccc3)cc2)c(-c2cnn[nH]2)c(OC)c1 | 31.6%
61 | COCCOc1ccc(/C=C/c2cc(OC)cc(OC)c2/C=C/[N+](=O)[O-])cc1 | 40.2%
62 | COc1ccc(NC(=O)COc2ccc(/C=C/c3cc(OC)cc(OC)c3/C=C/[N+](=O)[O-])cc2)cc1 | 15.1%
63 | COc1cc(/C=C/c2ccc(OCC(=O)NCc3ccncc3)cc2)c(/C=C/[N+](=O)[O-])c(OC)c1 | 65.4%
64 | COc1cc(/C=C/c2ccc(OCc3ccc(C(F)(F)F)cc3)cc2)c(/C=C/[N+](=O)[O-])c(OC)c1 | 23.7%
65 | CCCCNC(=O)COc1ccc(/C=C/c2cc(OC)cc(OC)c2/C=C/[N+](=O)[O-])cc1 | 70.1%
66 | COCCCOc1ccc(/C=C/c2cc(OC)cc(OC)c2/C=C/[N+](=O)[O-])cc1 | 53.7%
67 | COCCOc1ccc(/C=C/c2cc(OC)cc(OC)c2-c2cnn[nH]2)cc1 | 26.9%
68 | COc1cc(/C=C/c2ccc(OCC(=O)Nc3ccc(Br)cc3)cc2)c(/C=C/[N+](=O)[O-])c(OC)c1 | 26.2%
69 | O=[N+]([O-])/C=C/c1ccc2c(c1)OCO2 | 89.2%
70 | COc1cc(/C=C/c2ccc(OCC(=O)NCC3CCOCC3)cc2)c(/C=C/[N+](=O)[O-])c(OC)c1 | 25.3%
71 | COCCOc1ccc(/C=C/c2cc(OC)cc(OC)c2)cc1 | 32.3%
72 | C=CCCCOc1ccc(/C=C/c2cc(OC)cc(OC)c2)cc1 | 12.1%
73 | COCCCOc1ccc(/C=C/c2cc(OC)cc(OC)c2)cc1 | 20.2%

System: Macrophage
Test: Inhibition of NFkappaB activation in LPS-stimulated mouse bone marrow-derived macrophages assessed as reduction in TNFalpha secretion preincubated for 30 mins followed by nigericin addition and measured after 30 mins by ELISA
Type: tissue-based
Conditions: time 60.0 min

Row | Compound | inhibition
74 | COc1cc(/C=C/c2ccc(O)cc2)cc(OC)c1 [PTEROSTILBENE] | Active
